Measured values: ChEMBL document CHEMBL5528017, “Design and synthesis of dual BRD4/Src inhibitors for treatment of triple-negative breast cancer” (Eur J Med Chem, 2024)
Calls of active or inactive are those of the source. The rule behind the calls is not given here.

How the values were obtained:
MDA-MB-231 [1] = test: cells; details: Homo sapiens, MDA-MB-231, 72 h
Description: Antiproliferative activity against human MDA-MB-231 cells assessed as inhibition of cell viability incubated for 72 hrs by CCK8 assay

A549 = test: Antiproliferative activity against human A549 cells assessed as inhibition of cell viability incubated for 3 to 4 days by CCK8 assay; type: functional, cell-based; details: time 3-4 day
MDA-MB-231 [2] = test: Induction of cell cycle arrest in human MDA-MB-231 cells assessed as proportion of cells at G1 phase at 0.1 uM incubated for 24 hrs by propidium iodide staining based flow cytometry (reference value: 59.5%); type: functional
MDA-MB-231 [3] = test: Induction of apoptosis in human MDA-MB-231 cells assessed as proportion of late apoptotic cells at 0.5 uM incubated for 36 hrs by AnnexinV-FITC/PI staining based flow cytometry (reference value: […]%); type: functional
MDA-MB-231 [4] = test: Inhibition of cell migration in human MDA-MB-231 cells at 0.05 uM incubated for 12 hrs by wound healing assay; type: functional, cell-based
MDA-MB-231 [5] = test: Induction of cell cycle arrest in human MDA-MB-231 cells assessed as increase in p21 expression at 0.1 uM incubated for 24 hrs by western blot analysis; type: functional, cell-based
CWR22R = test: Antiproliferative activity against human 22Rv1 cells assessed as inhibition of cell viability incubated for 3 to 4 days by CCK8 assay; type: functional, cell-based; details: time 3-4 day
MDA-MB-231 [6] = test: Induction of cell cycle arrest in human MDA-MB-231 cells assessed as decrease in cyclin D1 expression at 0.1 uM incubated for 24 hrs by western blot analysis; type: functional, cell-based
MCF7 = test: Antiproliferative activity against human MCF7 cells assessed as inhibition of cell viability incubated for 3 to 4 days by CCK8 assay; type: functional, cell-based; details: time 3-4 day
MDA-MB-231 [7] = test: Induction of cell cycle arrest in human MDA-MB-231 cells assessed as proportion of cells at G2 phase at 0.1 uM incubated for 24 hrs by propidium iodide staining based flow cytometry (reference value: 11.6%); type: functional
MDA-MB-231 [8] = test: Induction of cell cycle arrest in human MDA-MB-231 cells assessed as proportion of cells at S phase at 0.1 uM incubated for 24 hrs by propidium iodide staining based flow cytometry (reference value: 28.2%); type: functional
MDA-MB-231 [9] = test: Antitumor activity against human MDA-MB-231 cells xenografted in NOD-SCID mouse assessed as inhibition of tumor growth at 30 mg/kg, po administered 5 days per week for 27 days; type: functional; details: MDA-MB-231, 648 h, time 27 day, read-out: TGI
MDA-MB-231 [10] = test: Induction of apoptosis in human MDA-MB-231 cells assessed as proportion of early apoptotic cells at 0.5 uM incubated for 36 hrs by AnnexinV-FITC/PI staining based flow cytometry (reference value: 5.05%); type: functional
MDA-MB-231 [11] = test: Induction of apoptosis in human MDA-MB-231 cells assessed as proportion of viable cells at 0.5 uM incubated for 36 hrs by AnnexinV-FITC/PI staining based flow cytometry (reference value: 93.6%); type: functional
MDA-MB-231 [12] = test: Induction of cell cycle arrest in human MDA-MB-231 cells assessed as downregulation of cyclin B1 expression at 0.1 uM incubated for 24 hrs by western blot analysis; type: functional, cell-based
MDA-MB-231 [13] = test: Induction of apoptosis in human MDA-MB-231 cells assessed as proportion of necrotic cells at 0.5 uM incubated for 36 hrs by AnnexinV-FITC/PI staining based flow cytometry (reference value: 0%); type: functional
MDA-MB-231 [14] = test: Inhibition of cell invasion in human MDA-MB-231 cells assessed as decrease in number of invading cells at 0.1 uM incubated for 16 hrs by matrigel coated transwell assay; type: functional, cell-based
[15] = molecular target: Bromodomain-containing protein 4 (Homo sapiens, UniProt O60885); test: Inhibition of His6-tagged recombinant BRD4 BD1 domain (44 to 168 residues) (unknown origin) expressed in Escherichia coli BL21(DE3) incubated for 0.5 hrs by FITC-labeled JQ1 based competitive fluorescence polarization assay
MDA-MB-231 [16] = test: Antitumor activity against human MDA-MB-231 cells xenografted in NOD-SCID mouse assessed as inhibition of tumor growth at 30 mg/kg, ip administered 5 days per week for 27 days; type: functional; details: time 27 day
MDA-MB-231 [17] = test: Induction of cell cycle arrest in human MDA-MB-231 cells assessed as […] in cyclin D1 expression at 0.1 uM incubated for 24 hrs by western blot analysis; type: functional, cell-based

SMILES: Cc1nc(Nc2ncc(C(=O)Nc3c(C)cccc3Cl)s2)cc(N2CCN(C(=O)C[C@@H]3N=Cc4c(sc(C)c4C)-n4c(C)nnc43)CC2)n1
- IC50 (MDA-MB-231 [1]): 980 nM

SMILES: Cc1nc(Nc2ncc(C(=O)Nc3c(C)cccc3Cl)s2)cc(N2CCN(CCOC(=O)[C@H](CC(C)C)NC(=O)C[C@@H]3N=C(c4ccc(Cl)cc4)c4c(sc(C)c4C)-n4c(C)nnc43)CC2)n1
- IC50 (MDA-MB-231 [1]): 240 nM

SMILES: Cc1nc(Nc2ncc(C(=O)Nc3c(C)cccc3Cl)s2)cc(N2CCN(CCOC(=O)CCCCCNC(=O)C[C@@H]3N=C(c4ccc(Cl)cc4)c4c(sc(C)c4C)-n4c(C)nnc43)CC2)n1
- IC50 (MDA-MB-231 [1]): 1080 nM

SMILES: Cc1nc(Nc2ncc(C(=O)Nc3c(C)cccc3Cl)s2)cc(N2CCN(CCOC(=O)[C@H](CC(=O)OC(C)(C)C)NC(=O)C[C@@H]3N=C(c4ccc(Cl)cc4)c4c(sc(C)c4C)-n4c(C)nnc43)CC2)n1
- IC50 (MDA-MB-231 [1]): 122 nM

SMILES: Cc1nc(Nc2ncc(C(=O)Nc3c(C)cccc3Cl)s2)cc(N2CCN(CCOC(=O)C(NC(=O)C[C@@H]3N=C(c4ccc(Cl)cc4)c4c(sc(C)c4C)-n4c(C)nnc43)C(C)C)CC2)n1 (some centres not stated)
- IC50 (MDA-MB-231 [1]): 172 nM

SMILES: Cc1nc(Nc2ncc(C(=O)Nc3c(C)cccc3Cl)s2)cc(N2CCN(CCOC(=O)C[C@@H]3N=C(c4ccc(Cl)cc4)c4c(sc(C)c4C)-n4c(C)nnc43)CC2)n1
- IC50 (MDA-MB-231 [1]): 52 nM

SMILES: Cc1nc(Nc2ncc(C(=O)Nc3c(C)cccc3Cl)s2)cc(N2CCN(CCOC(=O)CNC(=O)C[C@@H]3N=C(c4ccc(Cl)cc4)c4c(sc(C)c4C)-n4c(C)nnc43)CC2)n1
- IC50 (MDA-MB-231 [1]): 22 nM

SMILES: Cc1nc(Nc2ncc(C(=O)Nc3c(C)cccc3Cl)s2)cc(N2CCN(C(=O)CCCCCCCNC(=O)C[C@@H]3N=C(c4ccc(Cl)cc4)c4c(sc(C)c4C)-n4c(C)nnc43)CC2)n1
- IC50 (MDA-MB-231 [1]): 757 nM

SMILES: Cc1nc(Nc2ncc(C(=O)Nc3c(C)cccc3Cl)s2)cc(N2CCN(CCO)CC2)n1 [DASATINIB ANHYDROUS]
- Activity (A549): Active
- Activity (MDA-MB-231 [2]): 74.5%
- Activity (MDA-MB-231 [3]): 4.45%
- inhibition (MDA-MB-231 [4]): Active
- IC50 (MDA-MB-231 [1]): 157 nM
- Activity (MDA-MB-231 [5]): Active
- Activity (CWR22R): Active
- Activity (MDA-MB-231 [6]): Active
- Activity (MCF7): Active
- Activity (MDA-MB-231 [7]): 7.75%
- Activity (MDA-MB-231 [8]): 15.8%
- inhibition in vivo at 30 mg/kg (MDA-MB-231 [9]): 44.7%
- Activity (MDA-MB-231 [10]): 14.6%
- Activity (MDA-MB-231 [11]): 80.9%
- Activity (MDA-MB-231 [12]): Active
- Activity (MDA-MB-231 [13]): 0.002%
- inhibition (MDA-MB-231 [14]): Active

SMILES: Cc1nc(Nc2ncc(C(=O)Nc3c(C)cccc3Cl)s2)cc(N2CCN(CCOC(=O)[C@@H]3CCCCN3C(=O)C[C@@H]3N=C(c4ccc(Cl)cc4)c4c(sc(C)c4C)-n4c(C)nnc43)CC2)n1
- IC50 [15]: > 1000 nM
- IC50 (MDA-MB-231 [1]): 240 nM

SMILES: Cc1nc(Nc2ncc(C(=O)Nc3c(C)cccc3Cl)s2)cc(N2CCN(CCOC(=O)[C@@H]3CCCN3C(=O)C[C@@H]3N=C(c4ccc(Cl)cc4)c4c(sc(C)c4C)-n4c(C)nnc43)CC2)n1
- IC50 (MDA-MB-231 [1]): 135 nM

SMILES: Cc1nc(Nc2ncc(C(=O)Nc3c(C)cccc3Cl)s2)cc(N2CCN(CCOC(=O)CCOCCOCCOCCNC(=O)C[C@@H]3N=C(c4ccc(Cl)cc4)c4c(sc(C)c4C)-n4c(C)nnc43)CC2)n1
- IC50 (MDA-MB-231 [1]): 167 nM

SMILES: Cc1nc(Nc2ncc(C(=O)Nc3c(C)cccc3Cl)s2)cc(N2CCN(C(=O)CCCNC(=O)C[C@@H]3N=C(c4ccc(Cl)cc4)c4c(sc(C)c4C)-n4c(C)nnc43)CC2)n1
- IC50 (MDA-MB-231 [1]): 1330 nM

SMILES: CSCC[C@H](NC(=O)C[C@@H]1N=C(c2ccc(Cl)cc2)c2c(sc(C)c2C)-n2c(C)nnc21)C(=O)OCCN1CCN(c2cc(Nc3ncc(C(=O)Nc4c(C)cccc4Cl)s3)nc(C)n2)CC1
- IC50 (MDA-MB-231 [1]): 58 nM

SMILES: Cc1sc2c(c1C)C(c1ccc(Cl)cc1)=N[C@@H](CC(=O)OC(C)(C)C)c1nnc(C)n1-2
- TGI (MDA-MB-231 [16]): 63.6%
- Activity (MDA-MB-231 [2]): 73.3%
- Activity (MDA-MB-231 [3]): 2.9%
- inhibition (MDA-MB-231 [4]): Active
- IC50 (MDA-MB-231 [1]): 896 nM
- Activity (MDA-MB-231 [5]): Active
- Activity (MDA-MB-231 [7]): 8.53%
- Activity (MDA-MB-231 [8]): 17.5%
- Activity (MDA-MB-231 [10]): 13.3%
- Activity (MDA-MB-231 [11]): 83.8%
- Activity (MDA-MB-231 [17]): Active
- Activity (MDA-MB-231 [12]): Active
- Activity (MDA-MB-231 [13]): 0%
- inhibition (MDA-MB-231 [14]): inactive

SMILES: CC[C@H](C)[C@H](NC(=O)C[C@@H]1N=C(c2ccc(Cl)cc2)c2c(sc(C)c2C)-n2c(C)nnc21)C(=O)OCCN1CCN(c2cc(Nc3ncc(C(=O)Nc4c(C)cccc4Cl)s3)nc(C)n2)CC1
- IC50 [15]: > 1000 nM
- IC50 (MDA-MB-231 [1]): 340 nM

SMILES: Cc1nc(Nc2ncc(C(=O)Nc3c(C)cccc3Cl)s2)cc(N2CCN(CCOC(=O)[C@H](Cc3c[nH]c4ccccc34)NC(=O)C[C@@H]3N=C(c4ccc(Cl)cc4)c4c(sc(C)c4C)-n4c(C)nnc43)CC2)n1
- IC50 (MDA-MB-231 [1]): 95 nM

SMILES: Cc1nc(Nc2ncc(C(=O)Nc3c(C)cccc3Cl)s2)cc(N2CCN(C(=O)[C@@H]3CCCCN3C(=O)C[C@@H]3N=C(c4ccc(Cl)cc4)c4c(sc(C)c4C)-n4c(C)nnc43)CC2)n1
- IC50 [15]: > 1000 nM
- IC50 (MDA-MB-231 [1]): 5000 nM

SMILES: Cc1nc(Nc2ncc(C(=O)Nc3c(C)cccc3Cl)s2)cc(N2CCN(CCOC(=O)[C@H](Cc3ccccc3)NC(=O)C[C@@H]3N=C(c4ccc(Cl)cc4)c4c(sc(C)c4C)-n4c(C)nnc43)CC2)n1
- IC50 (MDA-MB-231 [1]): 197 nM

SMILES: Cc1nc(Nc2ncc(C(=O)Nc3c(C)cccc3Cl)s2)cc(N2CCN(C(=O)CCCCCNC(=O)C[C@@H]3N=C(c4ccc(Cl)cc4)c4c(sc(C)c4C)-n4c(C)nnc43)CC2)n1
- IC50 (MDA-MB-231 [1]): 300 nM
